Laboratory results published in ChEMBL document CHEMBL3102742, “Corallorazines from the myxobacterium Corallococcus coralloides” (J Nat Prod, 2014).
Calls of active or inactive are those of the source.

Columns and labels:
[1] = biological target: Procathepsin L (Homo sapiens) (UniProt P07711); assay: Inhibition of cathepsin L (unknown origin) up to 10 ug/ml
[2] = biological target: Cathepsin S (Homo sapiens) (UniProt P25774); assay: Inhibition of cathepsin S (unknown origin) up to 10 ug/ml
[3] = biological target: Cannabinoid receptor 1 (Homo sapiens) (UniProt P21554); assay: Binding affinity to CB1 receptor (unknown origin) up to 10 ug/ml
Chain of Cannabinoid receptor 1 (Homo sapiens) (P21554 whole entry): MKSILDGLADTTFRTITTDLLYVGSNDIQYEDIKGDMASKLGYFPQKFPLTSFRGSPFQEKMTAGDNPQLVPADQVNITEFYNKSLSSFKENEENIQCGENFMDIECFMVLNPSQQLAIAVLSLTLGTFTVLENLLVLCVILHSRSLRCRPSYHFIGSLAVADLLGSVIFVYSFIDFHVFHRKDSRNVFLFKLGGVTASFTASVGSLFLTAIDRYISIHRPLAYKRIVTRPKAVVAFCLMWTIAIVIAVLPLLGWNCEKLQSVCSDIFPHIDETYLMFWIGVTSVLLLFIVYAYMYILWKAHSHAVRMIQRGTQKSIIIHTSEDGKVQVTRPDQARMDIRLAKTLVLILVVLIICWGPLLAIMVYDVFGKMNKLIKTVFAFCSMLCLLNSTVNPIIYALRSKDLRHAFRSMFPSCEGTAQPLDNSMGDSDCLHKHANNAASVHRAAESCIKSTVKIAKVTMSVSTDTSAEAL

[4] = biological target: Cannabinoid receptor 2 (Homo sapiens) (UniProt P34972); assay: Binding affinity to CB2 receptor (unknown origin) up to 10 ug/ml
Chain of Cannabinoid receptor 2 (Homo sapiens) (P34972 whole entry): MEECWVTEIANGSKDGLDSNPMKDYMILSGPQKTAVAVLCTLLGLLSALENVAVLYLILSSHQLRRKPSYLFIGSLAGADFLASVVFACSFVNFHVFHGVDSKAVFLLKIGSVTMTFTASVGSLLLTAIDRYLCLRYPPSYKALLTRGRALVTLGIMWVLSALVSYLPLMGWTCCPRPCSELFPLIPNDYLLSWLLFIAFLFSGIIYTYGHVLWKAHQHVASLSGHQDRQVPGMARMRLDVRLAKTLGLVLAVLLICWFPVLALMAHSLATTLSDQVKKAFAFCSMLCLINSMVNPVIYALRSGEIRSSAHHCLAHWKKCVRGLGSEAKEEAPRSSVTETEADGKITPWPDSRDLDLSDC

[5] = biological target: Cathepsin B (Homo sapiens) (UniProt P07858); assay: Inhibition of cathepsin B (unknown origin) up to 10 ug/ml
Homo sapiens = species: Homo sapiens; assay: Inhibition of chymotrypsin (unknown origin) up to 10 ug/ml
Microbotryum violaceum = assay: Antifungal activity against Microbotryum violaceum up to 1 mg/ml by agar diffusion method; format: functional, organism-based
[6] = biological target: Prothrombin (Homo sapiens) (UniProt P00734); assay: Inhibition of human thrombin up to 10 ug/ml
Trypsin (Homo sapiens) = Trypsin (Homo sapiens) (UniProt P07477+P07478+P35030); assay: Inhibition of trypsin (unknown origin) up to 10 ug/ml; format: protein assay
Escherichia coli = assay: Antibacterial activity against Escherichia coli DSM 498 up to 1 mg/ml by agar diffusion method; format: functional, organism-based
Priestia megaterium = assay: Antibacterial activity against Bacillus megaterium DSM 32 up to 1 mg/ml by agar diffusion method; format: functional, organism-based
[7] = biological target: T1, Neutrophil elastase (Homo sapiens) (UniProt P08246); assay: Inhibition of human leucocyte elastase up to 10 ug/ml
T1 sequence (whole entry): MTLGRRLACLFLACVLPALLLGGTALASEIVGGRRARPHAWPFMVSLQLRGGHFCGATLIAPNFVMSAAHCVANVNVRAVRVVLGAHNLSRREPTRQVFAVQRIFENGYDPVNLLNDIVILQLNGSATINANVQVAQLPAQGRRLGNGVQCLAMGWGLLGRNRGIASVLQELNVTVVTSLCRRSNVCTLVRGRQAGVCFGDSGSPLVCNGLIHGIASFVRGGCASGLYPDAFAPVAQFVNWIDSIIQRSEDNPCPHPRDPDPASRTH

Aspergillus ruber = assay: Antifungal activity against Eurotium rubrum DSM 62631 up to 1 mg/ml by agar diffusion method; format: functional
Mycotypha microspora = assay: Antifungal activity against Mycotypha microspora up to 1 mg/ml by agar diffusion method; format: functional, organism-based

Chain of Procathepsin L (Homo sapiens) (P07711 114-333 limits assumed): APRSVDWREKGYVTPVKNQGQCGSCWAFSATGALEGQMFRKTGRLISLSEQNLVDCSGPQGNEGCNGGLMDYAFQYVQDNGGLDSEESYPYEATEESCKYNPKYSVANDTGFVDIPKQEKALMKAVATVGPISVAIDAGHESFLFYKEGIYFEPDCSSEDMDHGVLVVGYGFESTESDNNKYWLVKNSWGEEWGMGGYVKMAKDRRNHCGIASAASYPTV
Chain of Cathepsin S (Homo sapiens) (P25774 115-331 limits assumed): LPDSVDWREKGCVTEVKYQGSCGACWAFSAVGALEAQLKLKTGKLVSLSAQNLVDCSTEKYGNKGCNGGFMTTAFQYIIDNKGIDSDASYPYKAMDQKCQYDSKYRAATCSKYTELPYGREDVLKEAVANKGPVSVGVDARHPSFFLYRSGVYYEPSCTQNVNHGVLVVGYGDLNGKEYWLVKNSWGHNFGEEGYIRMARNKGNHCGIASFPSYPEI

C=C1C(=O)N(C)CC(O)N1C(=O)/C=C/C=C\CC(C)C (centres undefined)
inactive: inhibition [1] | inhibition [2] | Activity [3] | Activity [4] | inhibition [5] | inhibition (Homo sapiens) | Activity (Microbotryum violaceum) | inhibition [6] | inhibition (Trypsin (Homo sapiens)) | Activity (Escherichia coli) | Activity (Priestia megaterium) | inhibition [7] | Activity (Aspergillus ruber) | Activity (Mycotypha microspora)
